From PubChem BioAssay (NCI)
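Exposure lasted 48 hours, with cells grown in 96-well plates and compounds tested at five concentrations. GI50: concentration for 50% inhibition of growth. TGI: total growth inhibition.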 Where a SMILES comes first, the peptide text is derived from it.

Key:
Assay in all cases: NCI tumour cell line growth inhibition, 48 h
[1] = tested on: MDA-N
[2] = tested on: LXFL 529 NSCLC
[3] = tested on: DMS 273 small cell lung
[4] = tested on: DMS 114 small cell lung
[5] = tested on: HOP-18 NSCLC
[6] = tested on: XF 498 CNS
[7] = tested on: RXF-631 renal
[8] = tested on: P388 leukemia
[9] = tested on: P388/ADR leukemia
[10] = tested on: SN12K1 renal

Structure (SMILES)	TGI [1]	TGI [2] [µM]	TGI [3] [µM]	TGI [4] [µM]	TGI [5] [µM]	TGI [6] [µM]	TGI [7] [µM]	GI50 [1] [µg/mL]	TGI [8] [µM]	TGI [9] [µM]	TGI [10] [µM]
CCOC(=O)c1oc2ccc([N+](=O)[O-])c3c2c1CCC3	> 100 µM	> 100	> 100	> 100	> 100	41	> 100				
CCOC(=N)CC(=O)Nc1cccc(Cl)c1		> 100	> 100			> 100	> 100				
COc1c(-c2ccc(O)c(O)c2)oc2c(O)c(O)cc(O)c2c1=O	> 100 µM										
COc1ccc(-c2cc(-c3cc(Cl)cc(Br)c3O)[nH]c(=O)n2)cc1		30	31.1	38	55.7						
Cc1ccc(NC(=S)SCCC(=O)O)cc1		> 100	> 100	> 100			> 100				
COc1cc2c(cc1OC)NC(=O)NC(Cc1ccc3c(c1)OCO3)CC2 (stereo unspecified)		> 100	> 100	> 100		> 100					
CCN(CC)C(=O)N1CCN(C=S)CC1		> 100	> 100	> 100	> 100						
CSc1nc(NC2OC(COC(C)=O)C(OC(C)=O)C(OC(C)=O)C2OC(C)=O)c(-c2csc(N)n2)c(=O)n1C (stereo unspecified)		> 100		> 100	> 100						
Clc1ccc2nc(-c3ccccc3)nc(Cl)c2c1		> 100	> 100	> 100			> 100				
COc1ccc2c(c1)CC1c3c(ccc(OC)c3O)CC2N1C (stereo unspecified)		39	45.2	38.8	> 100	62.3	47.1				
CC1=C(Cl)C=CP(=O)(OC(C)C)C1 (stereo unspecified)		> 100		> 100	> 100		> 100				
NC(N)=Nc1nc2ccc([N+](=O)[O-])cc2[nH]1	> 100 µM										
COC(=O)C1C=NNC1C(=O)OC (stereo unspecified)		> 100	> 100	> 100	> 100	> 100	> 100				
C/C(=N\NC(=S)N1CC2CCC(CC2)C1)c1cccc(C)n1	17.8 µM										
O=[N+]([O-])c1ccccc1C=NC12CC3CC(CC(C3)C1)C2		> 100	> 100		> 100	> 100	> 100				
O=c1c(Br)cc2c(-c3ccccc3)c3cc(Br)c(O)c(Br)c3oc-2c1Br	> 100 µM										
C=C(CC(=O)O)C(=O)O (tested in a mixture with another compound)	> 50 µg/mL							> 50			
CCCCN(CCCC)CCC(O)c1cc2c(Cl)cc(Cl)cc2c2cc(C(F)(F)F)ccc12 (stereo unspecified)	26 µM										
O=c1c(NO)c([N+](=O)[O-])cnn1-c1ccccc1	4.02 µM	3.17	13.4	35.3	37.5	8.38	6.18				
C/C(=N\N=C(\[Se])N(C)C)c1ccccn1	26.3 µM	13.8	5.29	< 0.01	12.1	20.6	74.1		< 0.01	< 0.01	13.9

Structure (SMILES)	TGI [1]	TGI [2] [µM]	TGI [3] [µM]	TGI [4] [µM]	TGI [5] [µM]	TGI [6] [µM]	TGI [7] [µM]	GI50 [1] [µg/mL]	TGI [8] [µM]	TGI [9] [µM]	TGI [10] [µM]
CCCCCCCCCCCCCCCC(=O)OCC1OC(OC)C2NP(=O)(N(CCCl)CCCl)OC1C2O (stereo unspecified)		8.06	5.09	9.31	33.6	7.83	25.7				
CCCCN[C@H]1C2C3CC4C5CC(C42)C1(C)C53 (stereo partly specified)		> 100	> 100	> 100	> 100						
COc1ccc(/C=c2/sc3n(c2=O)NC2(CCC(C)CC2)NN=3)cc1 (stereo unspecified)		> 100	> 100	> 100		> 100					
CCC(C)C1NC(=O)C2CCCN2C(=O)CNC(=O)C(C)NC(=O)C(Cc2ccccc2)NC(=O)C(C(C)C)NC1=O (stereo unspecified) (cyclo(GPIVFA); configuration not given here)		> 100		> 100	> 100		> 100				
O=C(Nc1cc(Cl)cc(Cl)c1)/C(Cc1nc2ccccc2[nH]c1=O)=N/NC(=O)c1ccncc1		> 100		> 100			> 100				
CC1C[C@]2(C[C@@H](C)C(=O)O2)O[C@@H]2CC3(C)[C@@H]4CCC5C(C)(C)OC(=O)C[C@H]6OO[C@]4(CC[C@]3(C)C12)CC56O (stereo partly specified)		> 100	> 100	> 100	> 100	> 100					
CNS(=O)(=O)NN(C)S(=O)(=O)c1ccc2ccccc2c1		> 100	> 100	> 100			> 100				
Oc1ccc(CCNCc2cc3c(cc2Br)OCO3)cc1	> 100 µM										
Cc1ccn2c(CCc3nnc4cc(C)ccn34)nnc2c1	> 100 µM										
O=S(=O)([O-])[O-].[Cl-].[NH2-].[NH2-].[NH2-].[NH2-].[Ru+3].c1ccncc1		> 100	> 100								
C#CC1(O)c2ccccc2C(=O)c2ccccc21		> 100	> 100		> 100	> 100					
CCOC(=O)[C@H]1Nc2ccc([N+](=O)[O-])cc2C2c3ccccc3CC21 (stereo partly specified)		49.3	34.9	54		82.7					
CC(CNCCCNCCNCCCNCO)[N+](=O)[O-] (stereo unspecified)		13.9	32.4	30.6	28.3	29.9	30.3				
CC1=C(C(=O)Nc2ccc([N+](=O)[O-])cc2)C(c2ccc3c(c2)OCO3)C(C(=O)Nc2ccc([N+](=O)[O-])cc2)=C(C)N1		> 100	97.4	> 100	> 100						
Cc1ccc(-c2cc(=O)c3cc(C)c(C)c(C(=O)O)c3o2)cc1N		> 100		> 100	> 100	> 100	> 100				
COC(=O)C(CBr)CBr	9.22 µM	3.22	29.3	4.23		4.54	8.96				
C=C1C2CC(OC(C)=O)C3(C)C(c4ccoc4)OC(=O)[C@@H](O)[C@]13OC1C[C@H](OC(C)=O)C(C)(C)[C@H](CC(=O)OC)[C@]12C (stereo partly specified)		> 100	> 100	> 100	> 100		> 100				
CC12CO[C@@](C)(CC(S(=O)(=O)c3ccccc3)C1)O2 (stereo partly specified)		> 100	> 100	> 100	> 100						
CC(/C=C/c1ccccc1)=N\NC(N)=S	> 100 µM										
COc1ccc(/C(Cl)=C(\c2ccc(OCCN(C)C)cc2)c2ccc(OC(=O)C(C)(C)C)cc2)cc1		27	17.5	24.6		23.7					
